Results on twelve compounds are retold here after patent US20200405696A1, “INHIBITORS OF INDOLEAMINE 2,3-DIOXYGENASE AND/OR TRYPTOPHAN 2,3-DIOXYGENASE” (IDORSIA PHARMACEUTICALS LTD, priority 2018, published 2020).

Experiment [1] concerns the target T1, Recombinant full-length human IDO1 (Homo sapiens, UniProt P14902).
T1 construct: Recombinant full-length human IDO1 with a N-terminal hexahistidine tag; hexahistidine (His6) (N); made in house; host or cells: E. coli
Nature of the experiment: IDO1 enzymatic assay (NFK quantified by LCMS). The experiment is classed as biochemical. As to conditions: 2 nM enzyme, 5 μM L-tryptophan, pH6.5, 30 minutes pre-incubation at RT; mean values when measured multiple times; read-out: hIDO activity (IC50 in nM). In a few lines:
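His-tagged human IDO1 (2 nM) in pH 6.5 phosphate buffer with ascorbate, methylene blue and catalase was preincubated with compound (10 μM–0.5 nM, 0.6% DMSO) for 30 min at RT. The reaction then ran with 5 μM L-Trp for 30 min. NFK was measured by LCMS against a d5-Trp standard, and IC50 was obtained by four-parameter fit.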

Experiment [2] concerns the target T2, Recombinant human TDO comprising amino acids 19-407 (Homo sapiens, UniProt P48775).
T2 construct: Recombinant human TDO comprising amino acids 19-407 with a N-terminal hexahistidine tag; hexahistidine (His6) (N); made in house; host or cells: E. coli
Briefly: TDO2 enzymatic assay (NFK quantified by LCMS). The experiment is classed as biochemical. As to conditions: 15 nM enzyme, 200 μM L-tryptophan, pH7, 30 minutes pre-incubation at RT; mean values when measured multiple times; read-out: hTDO activity (IC50 in nM). The method, boiled down:
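NFK formed over 30 min at RT from 200 μM L-tryptophan was measured by LCMS, normalized to d5-tryptophan, after compound (0.5 nM–10 μM, duplicates, 0.6% DMSO) was preincubated 30 min with 15 nM recombinant His-tagged TDO 19-407 in phosphate buffer pH 7. IC50 from four-parameter logistic fit; repeats averaged.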

Usually IC50 stands for the concentration needed to halve the response being measured.

Structures are written as SMILES.

T1 sequence (P14902 whole entry): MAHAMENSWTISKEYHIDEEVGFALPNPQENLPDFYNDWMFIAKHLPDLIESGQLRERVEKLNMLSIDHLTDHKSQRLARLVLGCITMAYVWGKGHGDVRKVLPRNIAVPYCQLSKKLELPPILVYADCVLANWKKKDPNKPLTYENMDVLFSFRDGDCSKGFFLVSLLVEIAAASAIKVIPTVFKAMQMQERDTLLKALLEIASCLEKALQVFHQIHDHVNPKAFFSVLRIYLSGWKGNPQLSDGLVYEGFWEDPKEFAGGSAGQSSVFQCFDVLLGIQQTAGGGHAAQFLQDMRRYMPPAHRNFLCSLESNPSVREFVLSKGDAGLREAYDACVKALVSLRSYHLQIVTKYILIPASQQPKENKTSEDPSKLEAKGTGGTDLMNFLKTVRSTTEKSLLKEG
T2 sequence (P48775 19-406 limits assumed): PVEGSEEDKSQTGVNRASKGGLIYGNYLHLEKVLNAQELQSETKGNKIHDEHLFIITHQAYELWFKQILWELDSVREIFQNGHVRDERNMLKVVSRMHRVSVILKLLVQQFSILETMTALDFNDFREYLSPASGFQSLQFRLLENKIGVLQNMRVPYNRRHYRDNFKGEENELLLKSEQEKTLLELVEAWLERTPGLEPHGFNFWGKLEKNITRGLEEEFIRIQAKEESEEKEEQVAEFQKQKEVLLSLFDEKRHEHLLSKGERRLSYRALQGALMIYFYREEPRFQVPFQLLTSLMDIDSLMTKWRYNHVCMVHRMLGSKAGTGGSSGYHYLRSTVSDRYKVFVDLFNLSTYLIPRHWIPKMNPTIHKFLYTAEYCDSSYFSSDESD

Take `COc1ccccc1-n1cc(C(O)c2c(C3CC3)sc3cncn23)nn1` (racemic) [Example 7, rac-(2-Cyclopropyl-imidazo[5,1-b]thiazol-3-yl)-[1-(2-methoxy-phenyl)-1H-[1,2,3]triazol-4-yl]-methanol]: the results for the IC50 in experiment [1] and in experiment [2] were 50.9 nM and above 10200 nM, respectively.

Regarding `O=S1(=O)CCC(COc2ccc(-n3cc(C(O)c4c(C5CC5)sc5cncn45)nn3)cc2)CC1` (racemic) [Example 147, rac-(2-Cyclopropyl-imidazo[5,1-b]thiazol-3-yl)-{1-[4-(1,1-dioxo-hexahydro-1I6-thiopyran-4-ylmethoxy)-phenyl]-1H-[1,2,3]triazol-4-yl}-methanol], the IC50 in experiment [1] was 12.9 nM; in experiment [2], above 10200 nM.

With `OCCCOc1ccc(-n2cc(C(O)c3c(-c4ccccc4)sc4cncn34)nn2)cc1Cl` (racemic) [Example 267, rac-3-(2-Chloro-4-{4-[hydroxy-(2-phenyl-imidazo[5,1-b]thiazol-3-yl)-methyl]-[1,2,3]triazol-1-yl}-phenoxy)-propan-1-ol], the IC50 is 122 nM in experiment [1] and above 10200 nM in experiment [2].

Turning to `OC(c1cn(-c2ccc(OCC3CCOCC3)cc2)nn1)c1c(C2CC2)sc2cncn12` (racemic) [Example 87, rac-(2-Cyclopropyl-imidazo[5,1-b]thiazol-3-yl)-{1-[4-(tetrahydro-pyran-4-ylmethoxy)-phenyl]-1H-[1,2,3]triazol-4-yl}-methanol], the figures for the IC50 in experiment [1] and in experiment [2] were 20.7 nM and above 10200 nM, respectively.

In the case of `COc1ncc(-n2cc(C(O)c3c(C4CC4)sc4cncn34)nn2)cn1` (racemic) [Example 67, rac-(2-Cyclopropyl-imidazo[5,1-b]thiazol-3-yl)-[1-(2-methoxy-pyrimidin-5-yl)-1H-[1,2,3]triazol-4-yl]-methanol], the IC50 in experiment [1] turned out to be 50.2 nM; in experiment [2] it was 9160 nM.

Turning to `OC(c1cn(-c2ccc(CN3CCOCC3)cc2)nn1)c1c(C2CC2)sc2cncn12` (racemic) [Example 37, rac-(2-Cyclopropyl-imidazo[5,1-b]thiazol-3-yl)-[1-(4-morpholin-4-ylmethyl-phenyl)-1H-[1,2,3]triazol-4-yl]-methanol], the IC50 in experiment [1] was 175 nM; in experiment [2] it was above 10200 nM.

With `OC(c1nnc(-c2ccccc2)o1)c1c(C2CC2)sc2cncn12` (racemic) [Example 157, rac-(2-Cyclopropyl-imidazo[5,1-b]thiazol-3-yl)-(5-phenyl-[1,3,4]oxadiazol-2-yl)-methanol], the IC50 in experiment [1] was 586 nM; in experiment [2], above 10200 nM.

Consider `CC(C)(O)CCOc1ccc(-n2cc(C(O)c3c([C@@H]4C[C@@H]4F)sc4cncn34)nn2)cc1Cl` (relative stereo) [Example 309, 4-[2-Chloro-4-(4-{[2-(cis-2-fluoro-cyclopropyl)-imidazo[5,1-b]thiazol-3-yl]-hydroxy-methyl}-[1,2,3]triazol-1-yl)-phenoxy]-2-methyl-butan-2-ol], for which the figures for the IC50 in experiment [1] and in experiment [2] were 17 nM and above 10200 nM, respectively.

`OCc1ccc(-n2cc(C(O)c3c(C4CC4)sc4cncn34)nn2)cc1` (racemic) [Example 310, rac-(2-Cyclopropyl-imidazo[5,1-b]thiazol-3-yl)-[1-(4-hydroxymethyl-phenyl)-1H-[1,2,3]triazol-4-yl]-methanol]: the figures for the IC50 in experiment [1] and in experiment [2] were 50.1 nM and above 10200 nM, respectively.

In the case of `Cc1ccccc1-n1cc(C(O)c2c(C3CC3)sc3cncn23)nn1` (racemic) [Example 3, rac-(2-Cyclopropyl-imidazo[5,1-b]thiazol-3-yl)-(1-o-tolyl-1H-[1,2,3]triazol-4-yl)-methanol], the IC50 was 49.2 nM in experiment [1] and above 10200 nM in experiment [2].

Regarding `COc1ccc(-n2cc(C(O)c3c(C4CC4)sc4cncn34)nn2)cc1` (racemic) [Example 9, rac-(2-Cyclopropyl-imidazo[5,1-b]thiazol-3-yl)-[1-(4-methoxy-phenyl)-1H-[1,2,3]triazol-4-yl]-methanol], the IC50 in experiment [1] was 8.62 nM; in experiment [2] it was above 10200 nM.

Consider `CCc1sc2cncn2c1C(O)c1cn(-c2ccc(C(=O)NCCO)cc2)nn1` (racemic) [Example 118, rac-4-{4-[(2-Ethyl-imidazo[5,1-b]thiazol-3-yl)-hydroxy-methyl]-[1,2,3]triazol-1-yl}-N-(2-hydroxy-ethyl)-benzamide], for which the figures for the IC50 in experiment [1] and in experiment [2] were 15.8 nM and 9550 nM, respectively.
